Source: ChEMBL document CHEMBL5665440, “ASAP - In vitro liver microsomal stability” (2024)
“And” between values parts separate entries of the source, which are not always exact repeats. Identical values can stand only once.

Experiments:
[1] = (§1) Human liver microsomal stability of compound in microsomal protein, PBS buffer pH 7.4, NADPH, glucose-6-phosphate and glucose-6-phosphate dehydrogenase media. Aliquotes were taken at 5 time points and after stopping the reaction, supernatants were analyzed using HPLC coupled with a tandem mass spectrometer. The elimination constant, half-life, and intrinsic clearance are determined as results using linear regression analysis.; assay type: ADME, microsomes, Microsome; details: for half-life / microsomal CLint: liver microsomes; for CLint / Remaining / Remaining (without cofactor) / T1/2: microsomes
[2] = as §1, with “Mouse” for “Human”; assay type: ADME, microsomes, Microsome; details: for half-life / microsomal CLint: liver microsomes; for CLint / Remaining / Remaining (without cofactor) / T1/2: microsomes
Throughout, for Remaining (without cofactor): time not given here.
Throughout, for Remaining: time not given here.

Compound N#Cc1cc2c(cc1NC(=O)c1cc(F)cc3[nH]ncc13)CNC2 has a half-life [1] of over 173 min, a microsomal CLint [1] of under 10 µL/min/mg and a CLint [1] of 16.74 µL/min/mg. For the same compound, the Remaining [1] was 85.714% and 76.558%, the “Remaining (without cofactor)” value [1] was 101.075% and 93.161% and the T1/2 [1] was 99.773 min. For the same compound, the half-life [2] was 5.74 min, the microsomal CLint [2] was 291 µL/min/mg and the CLint [2] was 288.453 µL/min/mg. For the same compound, the Remaining [2] was 0.854% and 0.916%, the “Remaining (without cofactor)” value [2] was 97.455% and 90.578% and the T1/2 [2] was 5.79 min.

O=C(Nc1ccc2c(c1)CNC2)c1cc(F)cc2[nH]c(-c3ccc(F)cc3)nc12 showed a half-life [1] of over 173 min, a microsomal CLint [1] of under 10 µL/min/mg and a Remaining [1] of 90%. For the same compound, the “Remaining (without cofactor)” value [1] was 94.287%, the half-life [2] was 45.4 min and the microsomal CLint [2] was 36.8 µL/min/mg. The Remaining [2] was 54.776% and the “Remaining (without cofactor)” value [2] was 103.385%.

Compound Cc1cc([C@H](Nc2ccc3c(c2)CNC3)C(=O)NCC(F)F)cc(C(F)(F)F)c1 has a half-life [1] of over 173 min, a microsomal CLint [1] of under 10 µL/min/mg and a Remaining [1] of 89.032%. For the same compound, the “Remaining (without cofactor)” value [1] was 105.687%, the half-life [2] was 149 min and the microsomal CLint [2] was 11.2 µL/min/mg. The Remaining [2] was 85.983% and the “Remaining (without cofactor)” value [2] was 88.687%.

For CNC(=O)c1cc(Br)cc([C@H](Nc2ccc3c(c2)CNC3)C(=O)NCC(F)F)c1, the half-life [1] was over 173 min, the microsomal CLint [1] was under 10 µL/min/mg and the Remaining [1] was 96.629%. For the same compound, the “Remaining (without cofactor)” value [1] was 106.229%, the half-life [2] was over 173 min and the microsomal CLint [2] was under 10 µL/min/mg. For the same compound, the Remaining [2] was 92.112% and the “Remaining (without cofactor)” value [2] was 95.032%.

O=C1Cc2c(cc(F)cc2C(=O)Nc2ccc3c(c2)CNC3)N1 showed a half-life [1] of over 173 min, a microsomal CLint [1] of under 10 µL/min/mg and a Remaining [1] of 99%. For the same compound, the “Remaining (without cofactor)” value [1] was 112.283%, the half-life [2] was over 173 min and the microsomal CLint [2] was under 10 µL/min/mg. For the same compound, the Remaining [2] was 87.64% and the “Remaining (without cofactor)” value [2] was 93.435%.

In the case of COc1cc(C#N)cc([C@H](Nc2ccc3c(c2)CNC3)C(=O)NCC(F)F)c1, the half-life [1] is reported as over 173 min, the microsomal CLint [1] is reported as under 10 µL/min/mg and the Remaining [1] is reported as 93.073%. The “Remaining (without cofactor)” value [1] was 104.062%, the half-life [2] was over 173 min and the microsomal CLint [2] was under 10 µL/min/mg. The Remaining [2] was 90.033% and the “Remaining (without cofactor)” value [2] was 104.77%.

O=C(Nc1cc2c(c(C3=CCS(=O)(=O)CC3)c1)CNC2)c1cc(F)cc2[nH]ncc12 showed a half-life [1] of over 173 min, a microsomal CLint [1] of under 10 µL/min/mg and a Remaining [1] of 98.934%. The “Remaining (without cofactor)” value [1] was 96.094%, the half-life [2] was 17.2 min and the microsomal CLint [2] was 96.9 µL/min/mg. For the same compound, the Remaining [2] was 20.909% and the “Remaining (without cofactor)” value [2] was 113.863%.

Compound NCc1cccc(NC(=O)[C@@H](NC(=O)OCc2ccccc2)c2ccc(OCc3ccccc3)cc2)c1 has a half-life [1] of 149 min, a microsomal CLint [1] of 11 µL/min/mg and a Remaining [1] of 87%. The “Remaining (without cofactor)” value [1] was 100%, the half-life [2] was 1800 min and the microsomal CLint [2] was 1 µL/min/mg. For the same compound, the Remaining [2] was 103% and the “Remaining (without cofactor)” value [2] was 106%.

COc1ccc(-c2nc3c(C(=O)Nc4ccc5c(c4)CNC5)cc(F)cc3[nH]2)nn1 showed a half-life [1] of over 173 min, a microsomal CLint [1] of under 10 µL/min/mg and a Remaining [1] of 87.708%. The “Remaining (without cofactor)” value [1] was 99.462%, the half-life [2] was 98.7 min and the microsomal CLint [2] was 16.9 µL/min/mg. The Remaining [2] was 73.587% and the “Remaining (without cofactor)” value [2] was 92.469%.

Compound O=C(Nc1cc2c(cc1Br)CNC2)c1cc(F)cc2[nH]ncc12 has a half-life [1] of 146 min, a microsomal CLint [1] of 11.4 µL/min/mg and a Remaining [1] of 83.663%. The “Remaining (without cofactor)” value [1] was 98.81%, the half-life [2] was 5.58 min and the microsomal CLint [2] was 299 µL/min/mg. For the same compound, the Remaining [2] was 0.737% and the “Remaining (without cofactor)” value [2] was 95.151%.

COc1cc(Cc2c(-c3ccc(F)cc3)noc2C)nc(N2CCNCC2)n1 showed a half-life [1] of 108 min, a microsomal CLint [1] of 15 µL/min/mg and a Remaining [1] of 82%. For the same compound, the “Remaining (without cofactor)” value [1] was 110%, the half-life [2] was 41.7 min and the microsomal CLint [2] was 33 µL/min/mg. For the same compound, the Remaining [2] was 52% and the “Remaining (without cofactor)” value [2] was 101%.

Work on O=C(Nc1cc(Br)c2c(c1)CNC2)c1cc(F)cc2[nH]ncc12 yielded a half-life [1] of 123 min, a microsomal CLint [1] of 13.6 µL/min/mg and a Remaining [1] of 77.163%. For the same compound, the “Remaining (without cofactor)” value [1] was 100.794%, the half-life [2] was 11.5 min and the microsomal CLint [2] was 145 µL/min/mg. For the same compound, the Remaining [2] was 10.289% and the “Remaining (without cofactor)” value [2] was 104.117%.

CNC(=O)[C@H](Nc1ccc2c(c1)CNC2)c1cc(Cl)cc2[nH]c(-c3ccccc3)nc12 gave a half-life [1] of over 173 min, a microsomal CLint [1] of under 10 µL/min/mg and a Remaining [1] of 91.331%. The “Remaining (without cofactor)” value [1] was 107.659%, the half-life [2] was over 173 min and the microsomal CLint [2] was under 10 µL/min/mg. For the same compound, the Remaining [2] was 95.033% and the “Remaining (without cofactor)” value [2] was 94.186%.

In the case of O=C(Nc1ccc2c(c1)CNC2)c1cc(F)cc(-c2cn[nH]c2)c1, the half-life [1] is reported as 47.4 min, the microsomal CLint [1] is reported as 35.2 µL/min/mg and the CLint [1] is reported as 36.323 µL/min/mg. For the same compound, the Remaining [1] was 55.679% and 55.059%, the “Remaining (without cofactor)” value [1] was 98.537% and 92.131% and the T1/2 [1] was 45.983 min. The half-life [2] was 3.06 min, the microsomal CLint [2] was 545 µL/min/mg and the CLint [2] was 553.458 µL/min/mg. For the same compound, the Remaining [2] was 0.198% and 0.909%, the “Remaining (without cofactor)” value [2] was 96.471% and 97.807% and the T1/2 [2] was 3.018 min.
